Measured values as given in US10759788B2, “Pharmaceutical uses of pyridine carboxamide derivatives” (Jiangsu Hengrui Medicine Co., Ltd., priority 2014, dated 2020).
Entries after “also recorded” stand apart in the source; their conditions may differ.

Tests used:
[1] = system: SD rats; experiment: Diuretic efficacy of ROMK inhibitors in SD rats; format: in vivo; details: 0.03 and 0.1 mg/kg i.g. once, after urine collection
Protocol: The diuretic efficacy of compound 1 and positive control drug of ROMK inhibitor on SD rats was evaluated.
Male SD rats were purchased from SINO-BRITSH SIPPR/BK LAB. ANIMAL LTD., CO (Shanghai, China, Certificate No. 2008001647752, License SCXK (Shanghai) 2013-0016). The rats were 120-130 g, and fed at 5/cage, in a 12/12 hours light/dark cycle regulation, at a constant temperature of 23±1° C., humidity of 50-60%, and free access to water and food. The male SD rats were acclimated to this condition for 7 days before their use in the diuresis experiment.
The experiment was carried out according to the method disclosed in PCT Patent Application Publication WO2010129379A1. After adaptive feeding, the rats were placed in metabolism cages and fasted overnight. The rats were weighed and randomly divided into the following groups: blank control group, compound 1 tested drug 0.03 mg/kg group and 0.1 mg/kg group, and the positive control group 0.03 mg/kg and group 0.1 mg/kg, with 10 rats for each group. Each rat was intragastrically administered each compound (ig, 1 ml/kg). The rats in the blank control group were fed with the corresponding solvent. After intragastric administration, the rats were placed in the normal cage. After 30 min, 25 ml/kg normal saline was given. Rats were put into the metabolic cages, and fasting for food and water began inmediately. The total urine volume in 4 h was collected and measured. The urinary sodium and urinary potassium excretion in 4 h were also measured. The orbital serum was collected after the collection of urine to test the serum sodium and serum potassium concentrations.
The experimental data were expressed as mean±standard deviation (S.D.). The data was statistically compared using the t test of excel.

[2] = Solubility observed when preparing the drugs for the diuresis experiment; format: physicochemical; details: preparation of the dosing liquid, observation in words
Excerpt: In this experiment, the solubility of the test compound I was very good. There was no delamination phenomenon. […] After fully grinding, the solubility improved. […] Moreover, the effect was dose-dependent for each dose of the test compound I and the positive control drug.

SMILES	serum potassium [1]	serum sodium [1]	serum potassium ([1]; listed as Compound I)	solubility [2]
COc1cc(C(=O)NC2CCN(C[C@H](O)c3ccc4c(c3C)COC4=O)CC2)ncc1C#N [Example 1, (R)-5-cyano-N-(1-(2-hydroxy-2-(4-methyl-1-oxo-1,3-dihydroisobenzofuran-5-yl)ethyl)piperidin-4-yl)-4-methoxypicolinamide]	changed a little	changed a little	no effect	very good
Cc1cc(C(=O)NC2CCN(C[C@H](O)c3ccc4c(c3C)COC4=O)CC2)ncc1C#N [positive control drug]	changed a little; also recorded: no effect	changed a little		poor solubility
